According to patent US12662478B2, “ATF6 modulators and uses thereof” (Altos Labs, Inc., priority 2019, dated 2026):
Like-named read-outs stand apart in the source and are kept apart here.

Legend:
ATF6 [1] = target: T1, ATF6 (Homo sapiens, UniProt P18850); test: ERSE ATF6-luciferase assay in presence of Tg-induced ER stress (U2-OS ATF6 TRE-luciferase reporter cells); format: cell-based; settings: in presence of ER stress (thapsigargin), Tg only = 100%; for ATF6 activity @ 1 μM [%] / activity at 1 µM: 1 μM test compound; for ATF6 activity @ 1 μM [%] / ATF6 activity @ 10 μM [%]: 8 hr; for ATF6 activity @ 10 μM [%] / activity at 10 µM: 10 μM test compound; for activity at 1 µM / activity at 10 µM: U2OS, 8 h
T1 construct: endogenous in cells; host or cells: U2-OS (ATCC HTB-96) stably transduced with the Cignal Lenti ATF6 luc reporter (Qiagen #CLS-6031L)
T1 sequence (P18850 1-670): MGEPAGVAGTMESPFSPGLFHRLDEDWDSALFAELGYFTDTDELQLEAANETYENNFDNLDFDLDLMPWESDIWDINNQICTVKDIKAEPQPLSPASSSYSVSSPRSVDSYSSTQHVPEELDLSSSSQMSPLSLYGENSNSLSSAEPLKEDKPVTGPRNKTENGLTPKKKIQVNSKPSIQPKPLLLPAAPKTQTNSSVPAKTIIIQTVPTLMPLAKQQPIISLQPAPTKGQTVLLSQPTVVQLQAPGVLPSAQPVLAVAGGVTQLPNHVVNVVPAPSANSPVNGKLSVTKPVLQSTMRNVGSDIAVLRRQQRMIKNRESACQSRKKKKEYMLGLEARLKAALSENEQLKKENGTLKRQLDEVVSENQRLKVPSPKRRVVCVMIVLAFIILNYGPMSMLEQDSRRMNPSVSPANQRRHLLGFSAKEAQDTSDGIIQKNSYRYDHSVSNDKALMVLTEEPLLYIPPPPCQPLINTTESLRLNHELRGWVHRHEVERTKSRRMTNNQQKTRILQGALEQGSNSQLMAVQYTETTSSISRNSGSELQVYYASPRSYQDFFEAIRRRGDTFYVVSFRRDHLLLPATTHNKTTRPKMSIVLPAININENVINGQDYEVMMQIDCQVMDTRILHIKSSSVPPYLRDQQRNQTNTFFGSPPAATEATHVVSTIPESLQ
Experimental: (§1) To understand how exemplary compounds of the invention modulate the activity of ATF6 in absence or presence of endoplasmic reticulum (ER) stress, a Human bone osteosarcoma (U2-OS)-based TRE-luciferase reporter stable cell line was generated to determine the modulation of transcription of ATF6 target genes.
(§2) U2-OS cells were obtained from the American Type Culture Collection (ATCC HTB-96, ATCC Manassas, VA) and were cultured with growing medium containing Dulbecco's Modified Eagle's Medium (DMEM) (Cat. No.: SH30023.02, HyClone) supplemented with fetal bovine serum (FBS) 10% (Cat. No.: 16000044, Gibco) and 1% penicillin-streptomycin antibiotic cocktail (Cat. No.: SV30010, Hyclone).
(§3) Cignal Lenti ATF6 luc reporter (Qiagen #CLS-6031L) was used to produce a stable cell line in U2-OS cells (U2-OS ATF6 TRE-luciferase reporter). The lenti ATF6 reporter is a preparation of replication incompetent, VSV-g pseudotyped lentivirus particles expressing the firefly luciferase gene under the control of a minimal (m)CMV promoter and tandem repeats of the ATF6 transcriptional response element (TRE). The number of response elements as well as the intervening sequence between response elements has been experimentally optimized to maximize the signal to noise ratio.
(§4) Exemplary compounds of the invention and reference compounds were prepared from powder as 10 mM stock solutions in dimethyl sulfoxide (DMSO; Cat. No. #D2650, Sigma Aldrich) and stored at −80° C. in presence of N2 neutral atmosphere.
(§5) For the primary screening, 40,000 U2-OS ATF6 TRE-luciferase reporter cells were plated in poly-D-lysine (Cat. No.: P2636, Sigma) pre-coated white 96-well plates (Thermo Scientific Nunc #136101) with 100 μL of growing medium. Cells were incubated in humidified chambers for 24 hr.
For testing exemplary compounds in presence of ER-stress, cells were pre-treated for 30 min with 50 μL growing medium containing either vehicle (DMSO), 1 or 10 μM test compound. After this pre-incubation, 50 μL of a solution containing 0.2 μM of the ER stress-inducer thapsigargin (Tg) was added to the appropriate wells. The Tg solution also contains vehicle or test compounds at 1 or 10 μM as indicated. The final concentration of DMSO in each well was kept at 0.3%. Plates were incubated for 8 hr in humidified chambers.
After the 8 hr incubation, plates were cooled down to room temperature for 10 min prior to the luciferase assays. Luciferase reactions were performed using Luciferase Assay System (Cat. No.: E4550, Promega). Briefly, each well was washed with 100 μl of PBS 1× and, then, 20 μl of lysis reagent was added into each well. Plates were shaken for 10 min and, then, 50 μl of Luciferase Assay Reagent was added to each well. Luminescence was determined by integration of 1 s with a gain of 110 in a Synergy 4 Microplate reader. All measurements were carried out in triplicate.
The average activity determined from the wells containing vehicle only (DMSO, 0% of ATF6 activity) was used as blank and subtracted from the rest of measurements. The average activity determined from the wells containing Tg only was used as 100% of ATF6 activity. The percentage of modulation of exemplary compounds was calculated by normalizing values to potential maximal activation with Tg.
ATF6 activities of exemplary compounds at 1 and 10 μM in presence Tg-induced ER stress tested in the U2-OS ATF6 TRE-luciferase reporter cells were determined and are shown in Table 2-2 and Table 3-2.

ATF6 [2] = target: T1, ATF6; test: ERSE ATF6-luciferase assay in absence of ER stress (U2-OS ATF6 TRE-luciferase reporter cells); format: cell-based; settings: normalized to maximal activation with Tg; for ATF6 activity @ 1 μM-No Tg [%] / ATF6 activity @ 10 μM - No Tg [%]: Table 3-3; for ATF6 activity @ 10 μM - No Tg [%] / activation at 10 µM: 10 μM test compound; for activation at 1 µM / activation at 10 µM: U2OS, 8 h
Experimental: as §1, §2, §3, §4, §5
For testing exemplary compounds in absence of ER-stress, cells were treated for 8 hr with 100 μL growing medium containing either vehicle (DMSO), 1 or 10 μM test compound or 0.1 μM Tg. The final concentration of DMSO in each well was kept at 0.3%. Plates were incubated in humidified chambers.
After 8 hr of incubation, plates were cooled down to room temperature for 10 min prior to luciferase assays. Luciferase reactions were performed as above. Luminescence was read by integration of 1 s with a gain of 110 in a Synergy 4 Microplate reader. All measurements were carried out in triplicate.
The average activity determined from the wells containing vehicle only (DMSO, 0% of ATF6 activity) was used as blank and subtracted from the rest of measurements. The percentage of modulation of exemplary compound was calculated by normalizing values to potential maximal activation with Tg.
ATF6 activities of exemplary compounds at 1 and 10 μM in absence of Tg-induced ER stress in the U2-OS ATF6 TRE-luciferase reporter cells were determined and are shown in Table 3-2, and Table 3-3.

[3] = 1 μM test compound, in absence of ER stress (no Tg), 8 hr
[4] = in absence of ER stress (no Tg), 8 hr
[5] = 1 μM test compound, in absence of ER stress (no Tg), Table 3-3, read-out: ATF6 activity @ 1 μM-No Tg [%]
[6] = in absence of ER stress (no Tg), Table 3-3, read-out: ATF6 activity @ 10 μM - No Tg [%]

| Compound | ATF6 activity @ 1 μM [%] (ATF6 [1]; Table 2-3) | ATF6 activity @ 10 μM [%] (ATF6 [1]; Table 2-3) | ATF6 activity @ 1 μM-No Tg [%] (ATF6 [2]; [3]) | ATF6 activity @ 10 μM - No Tg [%] (ATF6 [2]; [4]) | further results |
| --- | --- | --- | --- | --- | --- |
| O=C(Nc1cnn(Cc2ccc(C(F)(F)F)cc2)c1)c1cc(-c2ccco2)on1 [Ceapin-A8, reference compound] | + (+ refers to 100% < % activity < 125% at 1 or 10 μM) | − (− refers to 75% < % activity < 100% at 1 or 10 μM) | – | – | ATF6 activity @ 1 μM [%] (ATF6 [1]; Table 2-2): + (+ refers to 100% < % activity < 125% at 1 or 10 μM); ATF6 activity @ 10 μM [%] (ATF6 [1]; Table 2-2): − (− refers to 75% < % activity < 100% at 1 or 10 μM); ATF6 activity @ 1 μM [%] (ATF6 [2]; 1 μM test compound, in absence of ER stress, 8 hr, Table 3-2): + (+ refers to 0% < % activity < 25% at 1 or 10 μM test compound) |
| CC(C1CCOC1)n1cc(NC(=O)c2cc(-c3ccco3)on2)cn1 (stereo not drawn) [Compound 3-27, 5-(furan-2-yl)-N-(1-(1-(tetrahydrofuran-3-yl)ethyl)-1H-pyrazol-4-yl)isoxazole-3-carboxamide] | + (+ refers to 100% < % activity < 125% at 1 or 10 μM) | +++ (+++ refers to >150% at 1 or 10 μM test compound) | + (+ refers to 0% < % activity < 25% at 1 or 10 μM test compound) | ++ (++ refers to 25% < % activity < 50% at 1 or 10 μM test compound) | – |
| CC(C1CCCC1)n1cc(NC(=O)c2cc(-c3ccco3)on2)cn1 (stereo not drawn) [Compound 3-5, N-(1-(1-cyclopentylethyl)-1H-pyrazol-4-yl)-5-(furan-2-yl)isoxazole-3-carboxamide] | – | – | – | – | activity at 1 µM (ATF6 [1]; Table 2-3): 125 to 150%; activity at 10 µM (ATF6 [1]; Table 2-3): > 150%; activation at 1 µM (ATF6 [2]; [5]): 0 to 25%; activation at 10 µM (ATF6 [2]; [6]): 0 to 25% |
| CC(C1CCCC1)n1cc(NC(=O)c2cc(-c3ccco3)on2)cn1 (single isomer, unassigned) [Compound 3-17, N-(1-(1-cyclopentylethyl)-1H-pyrazol-4-yl)-5-(furan-2-yl)isoxazole-3-carboxamide] | ++ (++ refers to 125% < % activity < 150% at 1 or 10 μM test compound) | – | – | – | activity at 10 µM (ATF6 [1]; Table 2-3): 125 to 150%; activation at 1 µM (ATF6 [2]; [5]): 0 to 25%; activation at 10 µM (ATF6 [2]; [6]): 0 to 25% |
| CC(c1c(Cl)cccc1Cl)n1cc(C#Cc2nnc(-c3ccccn3)s2)cn1 (stereo not drawn) [Compound 2-20, 2-((1-(1-(2,6-dichlorophenyl)ethyl)-1H-pyrazol-4-yl)ethynyl)-5-(pyridin-2-yl)-1,3,4-thiadiazole] | – | – | – | – | activity at 1 µM (ATF6 [1]; Table 2-2): 75 to 100%; activity at 10 µM (ATF6 [1]; Table 2-2): 100 to 125%; activation at 1 µM (ATF6 [2]; 1 μM test compound, in absence of ER stress, Table 3-2, read-out: ATF6 activity @ 1 μM [%]): 0 to 25%; activation at 10 µM (ATF6 [2]; in absence of ER stress, Table 3-2, read-out: ATF6 activity @ 10 μM [%]): 0 to 25% |
| O=C(Nc1cnn(C2CCOC2)c1)c1cc(-c2ccccn2)on1 (single isomer, unassigned) [Compound 3-21, 5-(pyridin-2-yl)-N-(1-(tetrahydrofuran-3-yl)-1H-pyrazol-4-yl)isoxazole-3-carboxamide] | +++ (+++ refers to >150% at 1 or 10 μM test compound) | +++ (+++ refers to >150% at 1 or 10 μM test compound) | + (+ refers to 0% < % activity < 25% at 1 or 10 μM test compound) | ++ (++ refers to 25% < % activity < 50% at 1 or 10 μM test compound) | – |
| O=C(Nc1cnn(C2CCOC2)c1)c1cc(-c2cccs2)on1 (single isomer, unassigned) [Compound 3-23, N-(1-(tetrahydrofuran-3-yl)-1H-pyrazol-4-yl)-5-(thiophen-2-yl)isoxazole-3-carboxamide] | +++ (+++ refers to >150% at 1 or 10 μM test compound) | +++ (+++ refers to >150% at 1 or 10 μM test compound) | ++ (++ refers to 25% < % activity < 50% at 1 or 10 μM test compound) | +++ (+++ refers to % activity >50 % at 1 or 10 μM test compound) | – |
| CC(C1CCOC1)n1cc(NC(=O)c2cc(-c3ccco3)on2)cn1 (stereo not drawn) [Compound 3-25, 5-(furan-2-yl)-N-(1-(1-(tetrahydrofuran-3-yl)ethyl)-1H-pyrazol-4-yl)isoxazole-3-carboxamide] | + (+ refers to 100% < % activity < 125% at 1 or 10 μM) | +++ (+++ refers to >150% at 1 or 10 μM test compound) | + (+ refers to 0% < % activity < 25% at 1 or 10 μM test compound) | + (+ refers to 0% < % activity < 25% at 1 or 10 μM test compound) | – |
